Reference: patent publication US20140212949A1, “METHOD FOR PREPARING MICROVESICULAR ADAM15” (INDUSTRY-ACADEMIC COOPERATION FOUNDATION, YONSEI UNIVERSITY, priority 2011, published 2014)

Assays:
Type in all cases: cell-based, human
MCF-7 cells [1] = test: ADAM15 release from MCF-7 cells into conditioned medium and levels in cell lysates (western blotting)
Method: FIG. 1 verifies that ADAM15 is released into the extracellular space. […] MCF-7 cells were incubated with 5 ng/Ml PMA in serum-free RPMI 1640 medium. P indicates pro-ADAM15 and M indicates mature ADAM15. In the results of the lower panel, data are represented as the mean±standard deviation of four experiments. *P<0.01; Student's t test. […] Cells were treated as described in the drawing. Arrows indicate pro-ADAM15 (P) and mature ADAM15 (M), respectively.
Cells were lysed in buffer containing 50 Mm Tris-HCl, pH 7.5, 5 mM EDTA, 150 mM NaCl, 1% Triton X-100, and protease inhibitor cocktail (Roche Applied Science, Indianapolis, Ind.) for 1 h at 4° C. and then centrifuged. The soluble portion of the lysate was used for western blotting, which was performed by separation of reduced or non-reduced samples on SDS-PAGE, followed by electroblotting to nitrocellulose membranes and detection of bound antibody by enhanced chemiluminescence (Amersham Biosciences, Pittsburgh, Pa.).
There are several studies showing that various membrane proteins are secreted into the extracellular space through ectodomain shedding or microvesicle release (van Kilsdonk et al., 2010). Here, we examined whether ADAM15 protein is released from human breast cancer MCF-7 cells into conditioned medium. Mature ADAM15 was detected in the conditioned medium by immunoblotting analysis with an antibody against ADAM15 extracellular domain (FIG. 1A). […] In MCF-7 cells, both the pro and mature forms of ADAM15 were detected. […] The mRNA levels of ADAM15 after PMA stimulation were also assessed. […] We further investigated whether released ADAM15 was generated by ectodomain shedding.

MCF-7 cells [2] = test: Semi-quantitative RT-PCR analysis of ADAM15 mRNA in MCF-7 cells; settings: 5 ng/Ml PMA for the indicated times
MCF-7 cells [3] = test: Exosome-associated ADAM15 release from MCF-7 cells (sequential centrifugation, immunoblotting); settings: 5 ng/Ml PMA for 24 h; 100,000×g pellet
Method: FIG. 2 verifies that released ADAM15 is associated with exosomes, and exosome-mediated ADAM15 is secreted by PMA-stimulated PKC activation. […] Conditioned medium of MCF-7 cells treated with or without 5 ng/Ml PMA for 24 h was subjected to sequential centrifugation as follows: 300×g (P1), 1,200×g (P2), 10,000×g (P3), 100,000×g (P4), and 100,000×g after filtering through a 0.22-μm pore size filter (P4′). Pellets from each stage were subjected to western blotting analysis using an anti-ADAM15 cytoplasmic domain antibody. Arrows indicate pro-ADAM15 (P) and mature ADAM15 (M), respectively. […] After ultracentrifugation at 100,000×g, the pellets were analyzed by immunoblotting with antibody to ADAM15 cytoplasmic domain. […] Isolated exosomes were analyzed by immunoblotting with ADAM15 antibody. […] The percent changes in fluorescence intensity associated with the presence of ADAM15 are shown.
(§1) Cells were incubated with or without PMA in serum-free medium or medium containing 5% FBS for 24 h. […] Protein concentration was measured by a modified Bradford assay (Bio-Rad Laboratories, Hercules, Calif.). […] The tubes were then ultracentrifuged at 100,000×g for 2.5 h in a Beckman SW 55 Ti rotor, and fractions with different densities were sequentially collected from the top of the tube and analyzed for exosomes containing ADAM15.

MCF-7 cells [4] = test: Flow cytometric analysis of cell- and exosomal-surface expression of ADAM15; settings: flow cytometry; 5 ng/Ml PMA for 24 h
Method: FIG. 2 verifies that released ADAM15 is associated with exosomes, and exosome-mediated ADAM15 is secreted by PMA-stimulated PKC activation. […] Conditioned medium of MCF-7 cells treated with or without 5 ng/Ml PMA for 24 h was subjected to sequential centrifugation as follows: 300×g (P1), 1,200×g (P2), 10,000×g (P3), 100,000×g (P4), and 100,000×g after filtering through a 0.22-μm pore size filter (P4′). Pellets from each stage were subjected to western blotting analysis using an anti-ADAM15 cytoplasmic domain antibody. Arrows indicate pro-ADAM15 (P) and mature ADAM15 (M), respectively. […] Isolated microvesicles from conditioned medium of MCF-7 cells treated with 5 ng/Ml PMA were subjected to sucrose gradient centrifugation. Each fraction was concentrated prior to SDS-PAGE. […] After ultracentrifugation at 100,000×g, the pellets were analyzed by immunoblotting with antibody to ADAM15 cytoplasmic domain. […] Isolated exosomes were analyzed by immunoblotting with ADAM15 antibody. […] The percent changes in fluorescence intensity associated with the presence of ADAM15 are shown.
Flow cytometric analysis of exosomes was performed as previously described with minor modifications (Thery et al., 2001). […] Flow cytometry was performed on a FACSCalibur (BD Biosciences), and data were analyzed using WinMDI software version 2.8 (The Scripps Research Institute, La Jolla, Calif.).

HEK293F cells = test: Exosomal ADAM15 enrichment in transfected HEK293F cells (immunoblotting); settings: 5 ng/Ml PMA for 24 h
Method: FIG. 3 verifies that ADAM15-rich exosomes have a high binding affinity for integrin αvβ3 and prevents interactions between integrin αvβ3 and vitronectin. […] FIGS. 3B and 3C show immunoblotting analysis. Prior to exosome isolation, transfected cells were stimulated with or without 5 ng/Ml PMA for 24 h, and the isolated exosomes were analyzed by immunoblotting analysis with the indicated antibodies. The exosomes were incubated with purified integrin αvβ3 (FIG. 3B) or α5β1 (FIG. 3C), followed by ultracentrifugation. The precipitates were analyzed by immunoblotting analysis. In the graphs, the immunoblotting results are represented by the relative intensity. […] Exosomes were incubated with purified integrin αvβ3 on a vitronectin-coated plate, and bound integrins were detected by anti-integrin αvβ3 antibody. […] After 2-h incubation, the number of bound cells was determined by MTT assay (OD: 540 nm). […]
as §1

THP-1 cells = test: Release of exosomal ADAM15 from THP-1 cells; settings: THP-1 cells incubated with PMA in serum-free medium for 24 h
Method: (§2) FIG. 9 verifies that the release of exosomal ADAM15 is further induced by LPS stimulation in differentiated THP-1 macrophages. […] THP-1 cells were incubated with PMA in serum-free medium for 24 h. Arrows indicate pro-ADAM15 and mature ADAM15, respectively. Total protein bands of exosomes were shown by Coomassie blue staining (middle penal). In the graph of the right panel, data are represented as the mean±standard deviation of three experiments. […] PMA-differentiated THP-1 cells were washed with PBS and further cultured for 2˜3 days. THP-1 macrophages were incubated with LPS in serum-free medium for 18 h. Exosomes were isolated from conditioned media. Arrows indicate pro-ADAM15 and mature ADAM15, respectively. Total protein bands of exosomes were shown by Coomassie blue staining (middle penal). The right panel represents the mean and standard deviation of three experiments. […] THP-1 cells were treated with or without PMA and/or LPS in serum-free medium for 18 h. […]
as §1

MDAH-2774 cells = test: Effect of PKC inhibitor on secretion of exosome-associated ADAM15; settings: PMA and indicated concentrations of calphostin C for 24 h
THP-1 macrophages = test: Release of exosomal ADAM15 from differentiated THP-1 macrophages; settings: THP-1 macrophages incubated with LPS in serum-free medium for 18 h
Method: as §2, §1

In the case of CCCCCCCCCCCCCC(=O)O[C@@H]1[C@@H](C)[C@@]2(O)[C@@H](C=C(CO)C[C@]3(O)C(=O)C(C)=C[C@@H]23)[C@@H]2C(C)(C)[C@]12OC(C)=O [PMA, phorbol 12-myristate 13-acetate], the “ADAM15 release into conditioned medium” value (MCF-7 cells [1]; 5 ng/Ml PMA, serum-free RPMI 1640, antibody against ADAM15 extracellular domain) is reported as “largely increased”, the “other membrane proteins ADAM10 and E-cadherin in cells” value (MCF-7 cells [1]; cell lysates after PMA stimulation) is reported as “unchanged” and the “pro and mature forms of ADAM15 in cells” value (MCF-7 cells [1]; cell lysates, time after PMA stimulation, barely detectable after 24 hrs) is reported as “decreased with time”. The “ADAM15 mRNA levels” value (MCF-7 cells [2]) was “unchanged”, the “amount of exosomal ADAM15” value (MCF-7 cells [3]) was “increased” and the “exosomal-surface ADAM15” value (MCF-7 cells [4]) was “increase”. For the same compound, the “plasma membrane-associated ADAM15” value (MCF-7 cells [4]) was “decrease”, the “exosomal ADAM15 in exosomes of ADAM15-transfected cells” value (HEK293F cells) was “further exosomal enrichment” and the “release of exosomal ADAM15” value (THP-1 cells) was “effectively increased”.
With calphostin C the “PMA-stimulated ADAM15 release” value (MDAH-2774 cells) was “successfully blocked”.
For lipopolysaccharide [LPS], the “release of exosomal ADAM15” value (THP-1 macrophages) was “enhanced”.
